Among the data in ChEMBL document CHEMBL1145262, “Aryl sulfones: a new class of gamma-secretase inhibitors” (Bioorg Med Chem Lett, 2005) are IC50 values, retold here.

For orientation: IC50 means the concentration that gives 50% inhibition. A higher IC50 goes with a need for much substance.

The test addresses Gamma-secretase. The test can be described thus: In vitro inhibition of gamma-secretase as amyloid peptide production in SH-SY5Y cells. It is filed as functional, cell-based, Homo sapiens.
In the case of `O=S(=O)(c1ccc(Cl)cc1)C1(c2cc(F)ccc2F)CC2CCC(C2)C1` (stereo in doubt; 19), the IC50 was 12 nM.
As for `O=S(=O)(Cc1cc(F)ccc1F)c1ccc(Cl)cc1`, the figure is 4410 nM.
Next, `O=S(=O)(c1ccc(Cl)cc1)C1(c2cc(F)ccc2F)CC2CCC(C2)C1` (stereo in doubt; 20): 94 nM.
Next, `COC(=O)C1CC(c2cc(F)ccc2F)(S(=O)(=O)c2ccc(Cl)cc2)CCC1=O` (centres undefined): 104 nM; `O=S(=O)(c1ccc(Cl)cc1)C1(c2cccc(F)c2)CCCCC1`: 249 nM.
The compound `CC(CO)C(c1cc(F)ccc1F)S(=O)(=O)c1ccc(Cl)cc1` (centres undefined) showed an IC50 of 304 nM.
As for `O=S(=O)(c1ccc(Cl)cc1)C1(c2cc(F)ccc2F)CCCCC1`, the figure is 3 nM; as for `O=S(=O)(c1ccc(Cl)cc1)C1(c2ccccc2)CCCCC1`, 461 nM.
For the compound `CC(C)C(c1cc(F)ccc1F)S(=O)(=O)c1ccc(Cl)cc1` (centres undefined), half-maximal inhibition (IC50) required 70 nM.
Take `O=S(=O)(Nc1cc(F)ccc1F)c1ccc(Cl)cc1`: the IC50 is over 10000 nM.
`O=S(=O)(c1ccccc1)C1(c2cc(F)ccc2F)CCCCC1` returned an IC50 of 98 nM.
The compound `COC(=O)C(C)C(c1cc(F)ccc1F)S(=O)(=O)c1ccc(Cl)cc1` (centres undefined) showed an IC50 of 253 nM.
Next, `O=C1CCC(c2cc(F)ccc2F)(S(=O)(=O)c2ccc(Cl)cc2)CC1`: 22 nM; `CN(c1cc(F)ccc1F)S(=O)(=O)c1ccc(Cl)cc1`: 1900 nM; `CC(C)N(c1cc(F)ccc1F)S(=O)(=O)c1ccc(Cl)cc1`: 170 nM.
As for `C[C@H](CO)N(c1cc(F)ccc1F)S(=O)(=O)c1ccc(Cl)cc1`, the figure is 27 nM; as for `CC(c1cc(F)ccc1F)S(=O)(=O)c1ccc(Cl)cc1` (centres undefined), 2470 nM; as for `CC(CCO)C(c1cc(F)ccc1F)S(=O)(=O)c1ccc(Cl)cc1` (centres undefined), 35 nM.
Compound `O=S(=O)(c1ccc(Cl)cc1)C1(c2ccccc2F)CCCCC1` returned an IC50 of 55 nM.
